{"source": "patent US7018456B2", "about": "“Phthalocyanine compound, water-base ink composition and colored material” (Nippon Kayaku Kabushiki Kaisha, priority 2002, dated 2006)", "experiment": "Water-solubility of the phthalocyanine compound", "assay_type": "physicochemical", "details": "at the ordinary temperature", "description": "300 parts of wet cake containing 53.6 parts of tetramino copper phthalocyanine (0.085 mol) were suspended in 360 parts of water in a four-neck flask equipped with a condenser, followed by heating to 60° C. with stirring, dropping 9.5 parts of acetic anhydride (0.093 mol) at the same temperature and stirring at the same temperature for 5 hours. Successively 0.2 parts of hydroquinone and 95.4 parts of acrylic acid […] were added, followed by heating to 80° C. and stirring with keeping the same temperature for 12 hours. Judging from the reaction, mixture of several compounds though it is, the reaction product is found to correspond to a compound which comprises tetramino phthalocyanine having on average one introduced acyl group (acetylamino) and three introduced carboxyethyl per molecule, namely the desired monoacetylamino(2-tricarboxyethylamino) copper phthalocyanine."}
{"substance": "monoacetylamino(2-tricarboxyethylamino) copper phthalocyanine [Example 5]", "values": [{"measurement": "water-solubility", "result": "about 10 % by mass"}]}
